Experimental data: US20160058722A1, “METHOD FOR IMPROVING THE OXYGEN-RELEASING ABILITY OF HEMOGLOBIN TO ORGANS AND PERIPHERAL TISSUES IN HUMAN BODIES” (NATIONAL SUN YAT-SEN UNIVERSITY, priority 2014, published 2016)

Biological target: hemoglobin (Homo sapiens, UniProt P68871+P69905)
Test: resonance Raman spectroscopy of oxygenated hemoglobin, percentage of "R" state
Type: biochemical
Conditions: varying mole ratio to hemoglobin tetramer, 532 nm excitation, oxygen atmosphere
Excerpt: In order to evaluate the effect of ferulic acid on stabilizing the oxygenated hemoglobin in the low oxygen affinity “T” state, compounds including 2,3-BPG (group A0) and ferulic acid (group A1) are mixed with hemoglobin as a function of their mole ratio to hemoglobin, followed by the resonance Raman spectroscopy measurements at 532 nm excitation wavelength under the oxygen atmosphere. The percentages of the high oxygen affinity “R” state for hemoglobin treated with 2,3-BPG (shown in FIG. 2a, as reference) and ferulic acid (shown in FIG. 2b) are analyzed from the resonance Raman spectroscopy measurements. In more specific, the percentage of high oxygen affinity “R” state for each treated hemoglobin was obtained by fitting a simulated spectrum comprised of adjustable weighing factors of the T and R states of pure hemoglobin to the obtained resonance Raman spectrum of treated hemoglobin.

Chain of hemoglobin (P69905 2-142): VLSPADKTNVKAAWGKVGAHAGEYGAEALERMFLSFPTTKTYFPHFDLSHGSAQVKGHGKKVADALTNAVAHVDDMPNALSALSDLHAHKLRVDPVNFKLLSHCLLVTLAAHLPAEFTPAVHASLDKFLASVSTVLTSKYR
Chain of hemoglobin (P68871 2-147): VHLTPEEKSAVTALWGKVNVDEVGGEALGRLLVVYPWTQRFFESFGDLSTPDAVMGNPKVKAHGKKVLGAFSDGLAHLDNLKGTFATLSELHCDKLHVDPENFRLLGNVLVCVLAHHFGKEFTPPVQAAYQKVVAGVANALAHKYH

Row | "R" state suppression efficiency | Compound
1 | about 20% | O=C(O)C(COP(=O)(O)O)OP(=O)(O)O (centres unmarked) [2,3-BPG, 2,3-bisphosphoglycerate]
2 | higher than 50% | COc1cc(/C=C/C(=O)O)ccc1O [ferulic acid]
